Tests used:
humanized GnRH receptor = biological target: T1, humanized GnRH receptor (Homo sapiens, UniProt P30968); assay: Antagonism on humanized GnRH receptor transfected in RBL-1 cells, fluorescence detection of cytoplasmic calcium flow; format: cell-based; conditions: RBL-1 cells transfected with humanized GnRH receptor, 8 nM LH-RH
T1 construct: expressed in transfected cells; host or cells: RBL-1 cells (Rat Basophilic Leukemia)
T1 sequence (P30968 1-328): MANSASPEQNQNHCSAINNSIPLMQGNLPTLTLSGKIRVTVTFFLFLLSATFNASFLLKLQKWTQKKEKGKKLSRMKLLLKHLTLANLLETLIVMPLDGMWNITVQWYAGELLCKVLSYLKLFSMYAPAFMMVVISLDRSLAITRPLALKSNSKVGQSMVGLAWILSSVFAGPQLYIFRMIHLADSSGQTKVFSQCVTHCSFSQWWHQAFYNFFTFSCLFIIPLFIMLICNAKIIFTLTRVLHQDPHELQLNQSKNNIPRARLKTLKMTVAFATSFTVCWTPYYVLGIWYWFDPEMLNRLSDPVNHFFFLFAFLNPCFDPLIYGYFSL
Protocol: The antagonism of the compound on humanized GnRH receptor transfected in RBL-1 cells (Rat Basophilic Leukemia) was evaluated by a fluorescence method for detecting the cytoplasmic calcium flow.
The cells were suspended in HBSS buffer (Invitrogen, USA), 20 mM HEPES buffer (Invitrogen, USA) was added, and then the cells were added at an average density of 1.186×10^4 cells/well into a microwell reaction plate. Fluorescent probe (Fluo8 Direct, AAT Bioquest) was mixed with HBSS buffer (adding 20 mM HEPES buffer, pH=7.4), and the mixture was added into each well and the cells were incubated at 30° C. for 60 min. Then the reaction plate was placed in a microplate reader (FlipR Tetra, Molecular Device) for testing, the test compound or HBSS buffer (blank control) was added, after 5 min, 8 nM LH-RH was added, and the changes of the fluorescence intensity which is proportional to intracellular calcium ion concentration were measured. The fluorescence intensity of the blank control group without adding the compound was taken as 100% (inhibition rate was 0%), and the inhibition rate of the compound was calculated. The IC50 value was calculated by measuring the inhibition rate of the compound at different concentrations.

[1] = Pharmacokinetic evaluation after intravenous or gavage administration to dogs; format: in vivo, Beagle dogs; conditions: 2.5 mg/kg; for AUC(0-inf) / AUC(0-t) / Cmax / MRT inf / Tmax / half-life: beagle, dog, plasma, intravenous, i.v group; for F: gavage group
Protocol: (§1) The pharmacokinetics of the compound of the invention in rats and/or dogs were evaluated herein, the animal information was listed in Table B.
The compound of the present invention was administered to the animal subjects in the form of 10% DMSO+10% Kolliphor HS15+78% Saline+2% (2% HCl) solution or 78% Saline+2% (2% HCl)+20% PEG400 solution. Before administration, the animals were fasted for 12 hours but water was freely allowed. In the IV group, the dose was 1 mg/kg (Rats) or 0.5 mg/kg (dogs), blood samples were taken from vein at the following time points after administration (blood volume was about 0.2 mL): 0.083, 0.25, 0.5, 1.0, 2.0, 4.0, 6.0, 8.0 and 24 h (dogs) or 0.083, 0.25, 0.5, 1.0, 2.0, 5.0, 7.0 and 24 h (Rats), EDTA-K2 was pre-added to the blood vessels as an anticoagulant. […] The blood samples were centrifuged at […] for 2 minutes. The plasma was collected and kept at −20° C. or −70° C.
(§2) The above collected plasma samples were processed (after thawing of frozen plasma at room temperature, the thawed plasma was vortexed for 15 s; 10-20 μL of plasma was taken and 120-150 μL of acetonitrile solution containing internal standard was added to the plasma; the mixture was vortexed for 5 min amd centrifuged for 5 min at 4,000 rpm; 100 μL of supernatant was taken and 120-150 μL of methanol/water (v/v=1/1) was added to the suspernatant, and mixing), and then LC/MS/MS was used to analyze the concentration of the compound in plasma, and […] was used to calculate the pharmacokinetic parameters.

[2] = Pharmacokinetic evaluation after intravenous or gavage administration to rats; format: in vivo, SD rats; conditions: for AUC(0-inf) / AUC(0-t) / Cmax / MRT inf / Tmax / clearance / half-life: Sprague-Dawley (SD), rat, plasma
Protocol: as §1
The compound of the present invention was administered to the animal subjects in the form of 10% DMSO+10% Kolliphor HS15+78% Saline+2% (2% HCl) solution or 78% Saline+2% (2% HCl)+20% PEG400 solution. Before administration, the animals were fasted for 12 hours but water was freely allowed. In the IV group, the dose was 1 mg/kg (Rats) or 0.5 mg/kg (dogs), blood samples were taken from vein at the following time points after administration (blood volume was about 0.2 mL): 0.083, 0.25, 0.5, 1.0, 2.0, 4.0, 6.0, 8.0 and 24 h (dogs) or 0.083, 0.25, 0.5, 1.0, 2.0, 5.0, 7.0 and 24 h (Rats), EDTA-K2 was pre-added to the blood vessels as an anticoagulant. In the gavage group, the dose was 5 mg/kg (Rats) or 2.5 mg/kg (dogs), blood samples were taken from vein at the following time points after administration (blood volume was about 0.2 mL): 0.25, 0.5, 1.0, 2.0, 4.0, 6.0, 8.0 and 24 h (dogs) or 0.25, 0.5, 1.0, 2.0, 5.0, 7.0 and 24 h (Rats), EDTA-K2 was pre-added to the blood vessels as an anticoagulant. The blood samples were centrifuged at […] for 2 minutes. The plasma was collected and kept at −20° C. or −70° C.
as §2

CONC(=O)Nc1ccc(-c2sc3c(c2CN(C)C)c(=O)n(-c2ccc(-n4nccn4)cn2)c(=O)n3Cc2c(F)cccc2F)cc1 [Example 2, 1-(4-(3-(5-(2H-1,2,3-triazol-2-yl)pyrid-2-yl)-1-(2,6-difluorobenzyl)-5-((dimethylamino)methyl)-2,4-dioxo-1,2,3,4-tetrahydrothieno[2,3-d]pyrimidin-6-yl)phenyl)-3-methoxyurea]
IC50 (humanized GnRH receptor): 3 nM
AUC(0-inf) [1]: 4290 ng·h/mL
AUC(0-t) [1]: 4130 ng·h/mL
Cmax [1]: 720 ng/mL
MRT inf [1]: 5.59 h
Tmax [1]: 1.33 h
half-life [1]: 4.41 h
F [1]: 133%
AUC(0-inf) ([2]; iv, i.v group, 1 mg/kg): 266 ng·h/mL
AUC(0-t) ([2]; iv, i.v group, 1 mg/kg): 261 ng·h/mL
Cmax ([2]; iv, i.v group, 1 mg/kg): 352 ng/mL
MRT inf ([2]; iv, i.v group, 1 mg/kg): 1.22 h
Tmax ([2]; iv, i.v group, 1 mg/kg): 0.083 h
clearance ([2]; iv, i.v group, 1 mg/kg): 62.7 mL/min/kg
half-life ([2]; iv, i.v group, 1 mg/kg): 1.33 h
AUC(0-inf) ([2]; po, i.g group, 5 mg/kg): 529 ng·h/mL
AUC(0-t) ([2]; po, i.g group, 5 mg/kg): 519 ng·h/mL
Cmax ([2]; po, i.g group, 5 mg/kg): 177 ng/mL
MRT inf ([2]; po, i.g group, 5 mg/kg): 2.48 h
Tmax ([2]; po, i.g group, 5 mg/kg): 0.667 h
half-life ([2]; po, i.g group, 5 mg/kg): 1.91 h
F ([2]; i.g group, 5 mg/kg): 39.8%

CONC(=O)Nc1ccc(-c2sc3c(c2CN(C)C)c(=O)n(-c2ccc(-n4cccn4)nc2)c(=O)n3Cc2c(F)cccc2F)cc1 [Example 3, 1-(4-(3-(6-(1H-pyrazol-1-yl)pyrid-3-yl)-1-(2,6-difluorobenzyl)-5-((dimethylamino)methyl)-2,4-dioxo-1,2,3,4-tetrahydrothieno[2,3-d]pyrimidin-6-yl)phenyl)-3-methoxyurea]
IC50 (humanized GnRH receptor): 1.82 nM
AUC(0-inf) [1]: 11800 ng·h/mL
AUC(0-t) [1]: 9490 ng·h/mL
Cmax [1]: 671 ng/mL
MRT inf [1]: 13.2 h
Tmax [1]: 1.67 h
half-life [1]: 9.44 h
F [1]: 140.3%
AUC(0-inf) ([2]; iv, i.v group, 1 mg/kg): 184 ng·h/mL
AUC(0-t) ([2]; iv, i.v group, 1 mg/kg): 179 ng·h/mL
Cmax ([2]; iv, i.v group, 1 mg/kg): 151 ng/mL
MRT inf ([2]; iv, i.v group, 1 mg/kg): 4.58 h
Tmax ([2]; iv, i.v group, 1 mg/kg): 0.083 h
clearance ([2]; iv, i.v group, 1 mg/kg): 90.7 mL/min/kg
half-life ([2]; iv, i.v group, 1 mg/kg): 2.13 h
AUC(0-inf) ([2]; po, i.g group, 5 mg/kg): 1750 ng·h/mL
AUC(0-t) ([2]; po, i.g group, 5 mg/kg): 1710 ng·h/mL
Cmax ([2]; po, i.g group, 5 mg/kg): 164 ng/mL
MRT inf ([2]; po, i.g group, 5 mg/kg): 6.4 h
Tmax ([2]; po, i.g group, 5 mg/kg): 2.33 h
half-life ([2]; po, i.g group, 5 mg/kg): 4.43 h
F ([2]; i.g group, 5 mg/kg): 190.6%

CONC(=O)Nc1ccc(-c2sc3c(c2CN(C)C)c(=O)n(-c2ccc(-n4nccn4)nc2)c(=O)n3Cc2c(F)cccc2F)cc1 [Example 4, 1-(4-(3-(6-(2H-1,2,3-triazol-2-yl)pyrid-3-yl)-1-(2,6-difluorobenzyl)-5-((dimethylamino)methyl)-2,4-dioxo-1,2,3,4-tetrahydrothieno[2,3-d]pyrimidin-6-yl)phenyl)-3-methoxyurea]
IC50 (humanized GnRH receptor): 2.22 nM

CONC(=O)Nc1ccc(-c2sc3c(c2CN(C)C)c(=O)n(-c2cccc(-n4cccn4)n2)c(=O)n3Cc2c(F)cccc2F)cc1 [Example 5, 1-(4-(3-(6-(1H-pyrazol-1-yl)pyrid-2-yl)-1-(2,6-difluorobenzyl)-5-((dimethylamino)methyl)-2,4-dioxo-1,2,3,4-tetrahydrothieno[2,3-d]pyrimidin-6-yl)phenyl)-3-methoxyurea]
IC50 (humanized GnRH receptor): 4.1 nM

CONC(=O)Nc1ccc(-c2sc3c(c2CN(C)C)c(=O)n(-c2ccc(-n4cccn4)nn2)c(=O)n3Cc2c(F)cccc2F)cc1 [Example 12, 1-(4-(3-(6-(1H-pyrazol-1-yl)pyridazin-3-yl)-1-(2,6-difluorobenzyl)-5-((dimethylamino)methyl)-2,4-dioxo-1,2,3,4-tetrahydrothieno[2,3-d]pyrimidin-6-yl)phenyl)-3-methoxyurea]
IC50 (humanized GnRH receptor): 3.13 nM

Source: patent US20220267347A1, “SUBSTITUTED PYRIMIDINEDIONE COMPOUNDS AND USES THEREOF” (SUNSHINE LAKE PHARMA CO., LTD., priority 2019, published 2022)
